Measurements published in article PMC10545790.
Where “and” joins values, the source holds several entries; their conditions need not be identical. Identical values can stand only once. Entries after “also recorded” stand apart in the source; their conditions may differ. Counter-ions that a name gives are not always drawn.

Experiments:
[1] = in vitro; settings: both, human
[2] = Thermal and chemical stability; assay type: physicochemical
From the text: We also examined the thermal and chemical stability of the synthesized 2-oxabicyclo[2.2.2]octanes. As representative examples, we selected three molecules: isomeric acids 47, 54, and amine 52. All 2-oxabicyclo[2.2.2]octanes were crystalline solids that were stable in air. We stored them in stock at room temperature in closed vials and observed no changes according to ^1H NMR after one year. […] Treatment of the selected 2-oxabicyclo[2.2.2]octanes with aq. 1 M HCl, or aq.

[3] = Determination of pKa values (potentiometric titration); assay type: physicochemical; settings: methanol-water (1:4) solution of NaCl; titration method; potentiometric acid-base titration at 25 °C in methanol-water (1:4), 150 mM NaCl; read-out: pKa (exp.)
Experimental: Data is obtained by the titration method. Para-methyl benzoic acid (83) is used as a reference. TEXT PRINTED IN THE PICTURE: 83: pKa (exp.): 4.5 ± 0.1 | 84: pKa (exp.): 5.6 ± 0.1 | 47: pKa (exp.): 4.4 ± 0.1 | 54: pKa (exp.): 4.1 ± 0.1 […]
Determination of pKa values
The tendency of a compound to donate proton is measured as its acid ionization constant (dissociation constant), or Ka. A more practical scale of representing acidity is pKa which is the negative logarithm of the Ka (pKa = -log Ka). pKa of a test article is determined by pH-metric method based on potentiometric acid-base titration at 25 °C. The test compounds are dissolved in acidified methanol-water (1:4) solution of NaCl (150 mM, pH 2) and slowly titrated with 0.3 M sodium hydroxide methanol-water (1:4) solution, while recording pH of the solution as a function of NaOH volume used during the titration (construction of the titration curve). Titration of acidified NaCl solution in absence of any compounds is used for blank plotting.5-8 Buffering capacity is calculated in each point of titration curve as the ratio of the NaOH flow (constant) to the pH rise velocity. The pKa value is determined from resulting plot of buffering capacity versus pH as the maximum of buffering capacity. pH-metric method allows to measure pKas in the range of approximately between 2 and 12. […]
meter, pHi®510 (Beckman Coulter, Canada; Cat# A58734). Data analysis was done using GraphPad […]
Sodium hydroxide (Enamine, Ukraine; CAS # 1310-73-2)
Sodium chloride BioXtra, ≥99.5% (AT) (Sigma-Aldrich, USA; Cat # S7653)
Hydrochloric acid (Enamine, Ukraine; CAS # 7647-01-0)
Disposable pipette tips (Eppendorf, German; Matrix and Finntip, Thermo, USA) Polypropylene graduated conical tubes, 50 mL (Kartell, Italy; Cat. # 84002) Polypropylene syringe (10 mL) with tubing (Hemoplast, Ukraine) […]
pH-meter, pHi®510 (Beckman Coulter, Canada; Cat# A58734)
Multichannel Electronic Pipettes 5-50 µL, 10-1000 µL (Thermo, USA)
Magnetic stirrer standard unit (IKA, USA)
Syringe Driver Mdl 100 (KDScientific, USA)

[4] = system: human hepatocellular carcinoma cells HepG2; assay: High Content Imaging of HepG2 cells: nuclei count, necrosis (PI), apoptosis (caspase 3/7); assay type: cell-based; design: Nuclei Area wv1 / Mean nuclei area: unit not given here; settings: for Mean nuclei intensity: Hoechst 33342; for % of early apoptotic cells (PI negative, caspase positive) / % of necrotic and late apoptotic cells (PI positive) / % of necrotic and late apoptotic cells (PI positive); cell toxicity level: mean of 3 wells; for All Targets.PI negative.casp positive (%) / All Targets.PI positive (%) / Nuclei Area wv1 / Nuclei Intensity wv1: single well; for Nuclei Count wv1: single well (concentration from plate map the 5th table)
Experimental: proliferation and cell death mechanisms, using High Content Imaging assay. The following parameters were assessed: nuclei count to measure inhibiting of the proliferation; cell membrane permeability to assess general cytotoxicity and necrosis; caspase activation to test apoptosis. […]
Human hepatocellular carcinoma HepG2 cell line was used to test biological action of Vorinostat and its analogues. Cell line was obtained from Leibniz Institute DSMZ - German Collection of Microorganisms and Cell Cultures. Cells were cultured in DMEM medium (Hyclone, Cat# SH30003.04) supplemented with 10% fetal bovine serum (Sigma-Aldrich, Cat# F7524), 100 units/mL penicillin and 100 μg/mL streptomycin (Sigma-Aldrich, Cat# P4333).
Before plating, the cells were first washed with PBS and then trypsinized with 0.01% trypsin solution (Sigma-Aldrich, Cat# T4174) in DPBS. The appropriate volume of culture medium was placed in a flask to stop further trypsinization, then the cells were centrifugated at 200 x g for 4 min, resuspended in fresh complete medium and counted using a counting chamber after being stained with Trypan Blue. […]
μL total volume per well and incubated at 37 °C/5%CO2/95%RH overnight. Vorinostat and test compounds were dissolved in 100% DMSO at a concentration of 10 mM and stored at -20 °C as single-use aliquots. Next day 20 μL of medium with compounds was added to the cells to the final DMSO concentration […]. Treatment for 48 hours was performed under growth conditions.
Compounds were assessed at the final concentrations 1, 5 and 50 μM (each in triplicates - 3 wells, 9 fields of view per well). Staining for nuclei, apoptotic cells with activated caspase 3/7 and dead […]
cells with permeabilized membrane was performed for 30 min under growth conditions in staining […]
3/7 Detection Reagent (Invitrogen, Cat# C10423) and 1 μM Propidium Iodide (Invitrogen, Cat# P3566) in medium complete. The cells were imaged with InCell Analyzer 6500, 20x obj. Image […]
Data were analyzed in GraphPad Prism 9.
Supplementary Fig. 16. Workflow of multiplexed cells staining.
Multiplexed staining allows to test cell toxicity and distinguish between necrosis and apoptosis within one single experiment (Supplementary Fig. 16).
CellEvent Caspase-3/7 Green Detection Reagent labels cells with activated caspases. Propidium Iodide (PI) labels dead cells with permeabilized membrane. Hoechst-positive cells were counted to assess the % of cell toxicity. PI-positive cells are dead – this is a fraction of necrotic and late apoptotic cells, used for assessing of cytotoxicity/necrosis. Early apoptotic cells are caspase-positive, PI-negative because their membrane isn’t compromised yet. Percentages of cells of certain […]
background and comparing with overall number of cells.

[5] = microsomes, pH 7.4, % Remaining, Mean of 2

SMILES: CC(C)NCC(O)COc1cccc2ccccc12 (racemic) [Propranolol, (+,-) Propranolol hydrochloride]
- remaining at 40 min, 2 µM [1, 5]: 66%
- half-life at 2 µM ([1]; microsomes, pH 7.4, t1/2: half-time of a metabolic decomposition): 1.02 h
- k el at 2 µM ([1]; pH 7.4, kel (elimination constant)): 0.000183 s⁻¹

SMILES: CC12CCC(CN)(CC1)OC2 [Compound 52]
- chemical stability in acid ([2]; aq. 1 M HCl, room temperature, 1 h): no decomposition
- chemical stability in base ([2]; aq. 1 M NaOH, room temperature, 1 h): no decomposition
- thermal stability ([2]; heating at 100 °C for five minutes): remained stable
- stability on storage ([2]; in air, room temperature, closed vials, one year, 1H NMR): no changes

SMILES: Cc1ccc(C(=O)O)cc1 [Compound 83, para-methyl benzoic acid, reference compound]
- pKa [3]: 4.5

SMILES: CC12CCC(C(=O)O)(CC1)CC2 [Compound 84, reference compound]
- pKa [3]: 5.6

SMILES: O=C(CCCCCCC(=O)NC12CCC(CC1)CC2)NO [Compound 89]
- Mean nuclei area ([4]; HepG2, 48 h, 1 uM): 117.0
- Mean nuclei intensity ([4]; HepG2, 48 h, 1 uM): 3374.0 RFU
- % of early apoptotic cells (PI negative, caspase positive) ([4]; HepG2, 48 h, 1 uM): 0.444%
- % of necrotic and late apoptotic cells (PI positive) ([4]; HepG2, 48 h, 1 uM): 0.6%
- All Targets.PI negative.casp positive (%) ([4]; HepG2, 48 h, 1 uM): 0.4175% and 0.3796% and 0.5358%
- All Targets.PI positive (%) ([4]; HepG2, 48 h, 1 uM): 0.5526% and 0.5457% and 0.7144%
- Nuclei Area wv1 ([4]; HepG2, 48 h, 1 uM): 115.697 and 116.603 and 118.647
- Nuclei Count wv1 ([4]; HepG2, 48 h, 1 uM): 8143 and 8429 and 8399
- Mean nuclei area ([4]; HepG2, 48 h, 5 uM): 120.9
- Mean nuclei intensity ([4]; HepG2, 48 h, 5 uM): 4138.0 RFU
- % of early apoptotic cells (PI negative, caspase positive) ([4]; HepG2, 48 h, 5 uM): 0.563%
- % of necrotic and late apoptotic cells (PI positive) ([4]; HepG2, 48 h, 5 uM): 0.9%
- All Targets.PI negative.casp positive (%) ([4]; HepG2, 48 h, 5 uM): 0.4763% and 0.5673% and 0.6459%
- All Targets.PI positive (%) ([4]; HepG2, 48 h, 5 uM): 0.9922% and 0.9996% and 0.6321%
- Nuclei Area wv1 ([4]; HepG2, 48 h, 5 uM): 120.224 and 120.771 and 121.802
- Nuclei Intensity wv1 ([4]; HepG2, 48 h, 5 uM): 4041.68 and 3853.68 and 4517.41
- Nuclei Count wv1 ([4]; HepG2, 48 h, 5 uM): 7559 and 7403 and 7277
- Mean nuclei area ([4]; HepG2, 48 h, 50 uM): 115.2
- Mean nuclei intensity ([4]; HepG2, 48 h, 50 uM): 2088.0 RFU
- % of early apoptotic cells (PI negative, caspase positive) ([4]; HepG2, 48 h, 50 uM): 9.5%
- % of necrotic and late apoptotic cells (PI positive); cell toxicity level ([4]; HepG2, 48 h, 50 uM): 67% and 67.1%
- inhibition of cell proliferation (in words) ([4]; HepG2, 48 h, 50 μM, nuclei count): inhibited cell proliferation at 50 μM concentration to the same level as Vorinostat
- All Targets.PI negative.casp positive (%) ([4]; HepG2, 48 h, 50 uM): 10.5117% and 9.102% and 8.933%
- All Targets.PI positive (%) ([4]; HepG2, 48 h, 50 uM): 65.2916% and 67.7168% and 68.1969%
- Nuclei Area wv1 ([4]; HepG2, 48 h, 50 uM): 113.454 and 115.571 and 116.43
- Nuclei Intensity wv1 ([4]; HepG2, 48 h, 50 uM): 1984.47 and 1672.21 and 2607.1
- Nuclei Count wv1 ([4]; HepG2, 48 h, 50 uM): 2521 and 2571 and 2418
- effect on HepG2 cell death / apoptosis compared with Vorinostat (in words) ([4]; HepG2, 48 h, 1, 5 and 50 μM): activity profile was the closest to Vorinostat; also recorded: active
- cytotoxic effects (in words) ([4]; HepG2, 48 h, 1 and 5 μM): did not demonstrate any significant cytotoxic effects
- effect on cell proliferation (in words) ([4]; HepG2, 48 h, 1 and 5 μM): did not have any significant effects

SMILES: Cc1ccc(NC(=O)c2ccc(CN3CCN(C)CC3)cc2)cc1Nc1nccc(-c2cccnc2)n1 [Imatinib]
- remaining at 40 min, 2 µM ([1]; microsomes, pH 7.4, % Remaining without cofactor, Mean of 2): 88%
- remaining at 7 min, 2 µM [1, 5]: 109%
- remaining at 0.25 h, 2 µM [1, 5]: 93%
- remaining at 25 min, 2 µM [1, 5]: 82%
- remaining at 40 min, 2 µM [1, 5]: 66%

SMILES: O=C(CCCCCCC(=O)Nc1ccccc1)NO [Vorinostat, reference compound]
- Mean nuclei area ([4]; HepG2, 48 h, 1 uM): 133.3
- Mean nuclei intensity ([4]; HepG2, 48 h, 1 uM): 3539.0 RFU
- % of early apoptotic cells (PI negative, caspase positive) ([4]; HepG2, 48 h, 1 uM): 1.4%
- % of necrotic and late apoptotic cells (PI positive) ([4]; HepG2, 48 h, 1 uM): 2.0%
- All Targets.PI negative.casp positive (%) ([4]; HepG2, 48 h, 1 uM): 1.09% and 1.685% and 1.464%
- All Targets.PI positive (%) ([4]; HepG2, 48 h, 1 uM): 1.46% and 2.372% and 2.236%
- Nuclei Area wv1 ([4]; HepG2, 48 h, 1 uM): 132.596 and 129.806 and 137.55
- Nuclei Intensity wv1 ([4]; HepG2, 48 h, 1 uM): 3323.23 and 3018.81 and 4275.36
- Nuclei Count wv1 ([4]; HepG2, 48 h, 1 uM): 5137 and 4806 and 4919
- Mean nuclei area ([4]; HepG2, 48 h, 5 uM): 133.4
- Mean nuclei intensity ([4]; HepG2, 48 h, 5 uM): 4444.0 RFU
- % of early apoptotic cells (PI negative, caspase positive) ([4]; HepG2, 48 h, 5 uM): 7.2%
- % of necrotic and late apoptotic cells (PI positive) ([4]; HepG2, 48 h, 5 uM): 10.4%
- All Targets.PI negative.casp positive (%) ([4]; HepG2, 48 h, 5 uM): 8.109% and 5.087% and 8.342%
- All Targets.PI positive (%) ([4]; HepG2, 48 h, 5 uM): 11.8095% and 7.619% and 11.7647%
- Nuclei Area wv1 ([4]; HepG2, 48 h, 5 uM): 135.125 and 131.698 and 133.281
- Nuclei Intensity wv1 ([4]; HepG2, 48 h, 5 uM): 4725.81 and 3784.72 and 4822.36
- Nuclei Count wv1 ([4]; HepG2, 48 h, 5 uM): 3675 and 4187 and 3740
- Mean nuclei area ([4]; HepG2, 48 h, 50 uM): 122.1
- Mean nuclei intensity ([4]; HepG2, 48 h, 50 uM): 1952.0 RFU
- % of early apoptotic cells (PI negative, caspase positive) ([4]; HepG2, 48 h, 50 uM): 12.2%
- % of necrotic and late apoptotic cells (PI positive); cell toxicity level ([4]; HepG2, 48 h, 50 uM): 77% and 77.5%
- All Targets.PI negative.casp positive (%) ([4]; HepG2, 48 h, 50 uM): 12.2839% and 13.7268% and 10.5715%
- All Targets.PI positive (%) ([4]; HepG2, 48 h, 50 uM): 77.0504% and 75.6692% and 79.9029%
- Nuclei Area wv1 ([4]; HepG2, 48 h, 50 uM): 120.16 and 121.222 and 124.941
- Nuclei Intensity wv1 ([4]; HepG2, 48 h, 50 uM): 1713 and 2196.3 and 1947.17
- Nuclei Count wv1 ([4]; HepG2, 48 h, 50 uM): 2719 and 2914 and 2677
